Laboratory results published in PubChem BioAssay (NCI).
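Briefly, cells in 96-well plates were exposed to five compound concentrations for 48 h, and endpoints were estimated by linear interpolation. TGI: concentration producing complete growth inhibition.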

Legend:
Experiment in all cases: NCI anticancer screen, dose series, 48 h
SR leukemia = system: SR leukemia
OVCAR-8 ovarian = system: OVCAR-8 ovarian
OVCAR-4 ovarian = system: OVCAR-4 ovarian
MALME-3M melanoma = system: MALME-3M melanoma
EKVX NSCLC = system: EKVX NSCLC
CAKI-1 renal = system: CAKI-1 renal
PC-3 prostate = system: PC-3 prostate
SW-620 colon = system: SW-620 colon
DU-145 prostate = system: DU-145 prostate
HT29 colon = system: HT29 colon
SK-MEL-28 melanoma = system: SK-MEL-28 melanoma
NCI/ADR-RES ovarian = system: NCI/ADR-RES ovarian
IGROV1 ovarian = system: IGROV1 ovarian
SK-OV-3 ovarian = system: SK-OV-3 ovarian
M14 melanoma = system: M14 melanoma
OVCAR-3 ovarian = system: OVCAR-3 ovarian
OVCAR-5 ovarian = system: OVCAR-5 ovarian
NCI-H460 lung = system: NCI-H460 lung
A498 renal = system: A498 renal
RXF 393 renal = system: RXF 393 renal

CCOC(=O)NC(Nc1ccc(S(=O)(=O)Nc2ncccn2)cc1)(C(=O)OCC)C(F)(F)F (stereo not drawn)
TGI (SR leukemia): > 100 µM
TGI (OVCAR-8 ovarian): > 100 µM
TGI (OVCAR-4 ovarian): > 100 µM
TGI (MALME-3M melanoma): > 100 µM
TGI (EKVX NSCLC): > 100 µM
TGI (CAKI-1 renal): > 100 µM
TGI (PC-3 prostate): > 100 µM
TGI (SW-620 colon): > 100 µM
TGI (DU-145 prostate): > 100 µM
TGI (HT29 colon): > 100 µM
TGI (SK-MEL-28 melanoma): > 100 µM
TGI (NCI/ADR-RES ovarian): > 100 µM
TGI (IGROV1 ovarian): > 100 µM
TGI (SK-OV-3 ovarian): > 100 µM
TGI (M14 melanoma): > 100 µM
TGI (OVCAR-3 ovarian): > 100 µM
TGI (OVCAR-5 ovarian): > 100 µM
TGI (NCI-H460 lung): > 100 µM

Cc1nc(N)c(N2CCNCC2)c(=O)[nH]1
TGI (SR leukemia): > 100 µM
TGI (OVCAR-8 ovarian): > 100 µM
TGI (MALME-3M melanoma): > 100 µM
TGI (EKVX NSCLC): > 100 µM
TGI (PC-3 prostate): > 100 µM
TGI (SW-620 colon): > 100 µM
TGI (DU-145 prostate): > 100 µM
TGI (HT29 colon): > 100 µM
TGI (SK-MEL-28 melanoma): > 100 µM
TGI (A498 renal): > 100 µM
TGI (NCI/ADR-RES ovarian): > 100 µM
TGI (M14 melanoma): > 100 µM
TGI (OVCAR-3 ovarian): > 100 µM
TGI (OVCAR-5 ovarian): > 100 µM
TGI (NCI-H460 lung): > 100 µM

O=C1C(Br)=CC2(C=C1Br)CCN=c1c(O)c3c(c(O)c12)=NC=N3
TGI (SR leukemia): > 100 µM
TGI (OVCAR-8 ovarian): 31.9 µM
TGI (OVCAR-4 ovarian): 27.8 µM
TGI (EKVX NSCLC): 32 µM
TGI (CAKI-1 renal): 41 µM
TGI (PC-3 prostate): > 100 µM
TGI (SW-620 colon): 31.9 µM
TGI (DU-145 prostate): 29.6 µM
TGI (HT29 colon): 29.2 µM
TGI (SK-MEL-28 melanoma): 29.9 µM
TGI (A498 renal): 33.2 µM
TGI (NCI/ADR-RES ovarian): 52.9 µM
TGI (SK-OV-3 ovarian): 48.2 µM
TGI (M14 melanoma): 30.6 µM
TGI (OVCAR-3 ovarian): 29.1 µM
TGI (OVCAR-5 ovarian): 29.4 µM
TGI (RXF 393 renal): 29.9 µM
TGI (NCI-H460 lung): 32.8 µM

CCN(CC)Cc1cc(Nc2ccnc3ccc4c(nnn4C)c23)ccc1O
TGI (SR leukemia): 18.6 µM
TGI (OVCAR-8 ovarian): 41.9 µM
TGI (OVCAR-4 ovarian): 32.6 µM
TGI (MALME-3M melanoma): 42.1 µM
TGI (EKVX NSCLC): > 100 µM
TGI (CAKI-1 renal): 33.3 µM
TGI (PC-3 prostate): 20.8 µM
TGI (DU-145 prostate): 31.4 µM
TGI (HT29 colon): > 100 µM
TGI (SK-MEL-28 melanoma): 17.8 µM
TGI (NCI/ADR-RES ovarian): 52.7 µM
TGI (IGROV1 ovarian): 80.3 µM
TGI (SK-OV-3 ovarian): 31.5 µM
TGI (M14 melanoma): 28.7 µM
TGI (OVCAR-3 ovarian): 39.9 µM
TGI (OVCAR-5 ovarian): 33.9 µM
TGI (RXF 393 renal): 30.6 µM
TGI (NCI-H460 lung): 14.2 µM

Cc1ccc(S(=O)(=O)OC2C3OC(C)(C)OC3OC2C(c2cc(O)c3c(c2O)C(=O)c2ccccc2C3=O)c2cc(O)c3c(c2O)C(=O)c2ccccc2C3=O)cc1 (stereo not drawn)
TGI (SR leukemia): > 10 µM
TGI (OVCAR-8 ovarian): > 10 µM
TGI (OVCAR-4 ovarian): > 10 µM
TGI (MALME-3M melanoma): > 10 µM
TGI (EKVX NSCLC): > 10 µM
TGI (CAKI-1 renal): > 10 µM
TGI (PC-3 prostate): > 10 µM
TGI (SW-620 colon): > 10 µM
TGI (DU-145 prostate): > 10 µM
TGI (HT29 colon): > 10 µM
TGI (SK-MEL-28 melanoma): > 10 µM
TGI (A498 renal): > 10 µM
TGI (NCI/ADR-RES ovarian): > 10 µM
TGI (IGROV1 ovarian): > 10 µM
TGI (SK-OV-3 ovarian): > 10 µM
TGI (M14 melanoma): > 10 µM
TGI (OVCAR-3 ovarian): > 10 µM
TGI (OVCAR-5 ovarian): > 10 µM
TGI (NCI-H460 lung): > 10 µM

Clc1cccc(Cl)c1C1SCC2=Nc3ccccc3CN21 (stereo not drawn)
TGI (SR leukemia): > 100 µM
TGI (OVCAR-4 ovarian): > 100 µM
TGI (EKVX NSCLC): 73.6 µM
TGI (CAKI-1 renal): > 100 µM
TGI (PC-3 prostate): 52.4 µM
TGI (SW-620 colon): > 100 µM
TGI (DU-145 prostate): 68.4 µM
TGI (SK-MEL-28 melanoma): 91.2 µM
TGI (A498 renal): > 100 µM
TGI (NCI/ADR-RES ovarian): 40 µM
TGI (IGROV1 ovarian): 62.5 µM
TGI (SK-OV-3 ovarian): 50.6 µM
TGI (M14 melanoma): 48.1 µM
TGI (OVCAR-3 ovarian): 29.5 µM
TGI (OVCAR-5 ovarian): > 100 µM
TGI (RXF 393 renal): 56.6 µM
TGI (NCI-H460 lung): > 100 µM

CC1CN=C(Nc2ccc(S(N)(=O)=O)cc2)S1 (stereo not drawn)
TGI (SR leukemia): > 100 µM
TGI (OVCAR-8 ovarian): > 100 µM
TGI (OVCAR-4 ovarian): > 100 µM
TGI (MALME-3M melanoma): > 100 µM
TGI (EKVX NSCLC): > 100 µM
TGI (CAKI-1 renal): > 100 µM
TGI (PC-3 prostate): > 10 µM
TGI (SW-620 colon): > 100 µM
TGI (DU-145 prostate): > 100 µM
TGI (HT29 colon): > 100 µM
TGI (SK-MEL-28 melanoma): > 100 µM
TGI (A498 renal): > 100 µM
TGI (NCI/ADR-RES ovarian): > 100 µM
TGI (IGROV1 ovarian): > 100 µM
TGI (SK-OV-3 ovarian): > 100 µM
TGI (M14 melanoma): > 100 µM
TGI (OVCAR-3 ovarian): > 100 µM
TGI (OVCAR-5 ovarian): > 100 µM
TGI (NCI-H460 lung): > 100 µM

S=C(/N=c1/sc(Nc2ccccc2)nc2sc3c(c12)CCCC3)Nc1ccccc1
TGI (SR leukemia): > 62.5 µM
TGI (OVCAR-4 ovarian): > 62.5 µM
TGI (MALME-3M melanoma): > 62.5 µM
TGI (EKVX NSCLC): > 62.5 µM
TGI (CAKI-1 renal): > 62.5 µM
TGI (PC-3 prostate): > 62.5 µM
TGI (SW-620 colon): > 62.5 µM
TGI (DU-145 prostate): > 62.5 µM
TGI (HT29 colon): > 62.5 µM
TGI (SK-MEL-28 melanoma): > 62.5 µM
TGI (A498 renal): > 62.5 µM
TGI (IGROV1 ovarian): > 62.5 µM
TGI (SK-OV-3 ovarian): > 62.5 µM
TGI (OVCAR-3 ovarian): > 62.5 µM
TGI (OVCAR-5 ovarian): > 62.5 µM
TGI (RXF 393 renal): > 62.5 µM
TGI (NCI-H460 lung): > 62.5 µM

O=C(CC(=O)N(C(=O)c1ccccc1)c1ccc(Cl)cc1)N/N=C\c1cc(N=Nc2ccccc2Cl)ccc1O
TGI (SR leukemia): 35.8 µM
TGI (OVCAR-8 ovarian): > 100 µM
TGI (MALME-3M melanoma): > 100 µM
TGI (EKVX NSCLC): > 100 µM
TGI (CAKI-1 renal): > 100 µM
TGI (PC-3 prostate): > 100 µM
TGI (SW-620 colon): > 100 µM
TGI (DU-145 prostate): > 100 µM
TGI (HT29 colon): > 100 µM
TGI (SK-MEL-28 melanoma): > 100 µM
TGI (A498 renal): 85.6 µM
TGI (IGROV1 ovarian): > 100 µM
TGI (SK-OV-3 ovarian): > 100 µM
TGI (M14 melanoma): > 100 µM
TGI (OVCAR-3 ovarian): > 100 µM
TGI (OVCAR-5 ovarian): > 100 µM
TGI (RXF 393 renal): > 100 µM
TGI (NCI-H460 lung): > 100 µM

CCCCn1c(C)c(C(=O)OCC)c2cc(OCc3ccc(C(=O)Nn4c(C)ccc4C)cc3)c(Br)cc21
TGI (SR leukemia): > 100 µM
TGI (OVCAR-8 ovarian): > 100 µM
TGI (OVCAR-4 ovarian): > 100 µM
TGI (MALME-3M melanoma): > 100 µM
TGI (EKVX NSCLC): > 100 µM
TGI (CAKI-1 renal): > 100 µM
TGI (PC-3 prostate): > 100 µM
TGI (SW-620 colon): > 100 µM
TGI (DU-145 prostate): > 100 µM
TGI (HT29 colon): > 100 µM
TGI (SK-MEL-28 melanoma): > 100 µM
TGI (A498 renal): > 100 µM
TGI (NCI/ADR-RES ovarian): > 100 µM
TGI (IGROV1 ovarian): > 100 µM
TGI (SK-OV-3 ovarian): > 100 µM
TGI (M14 melanoma): > 100 µM
TGI (OVCAR-3 ovarian): > 100 µM
TGI (OVCAR-5 ovarian): > 100 µM
TGI (NCI-H460 lung): > 100 µM
